Like-named read-outs stand apart in the source and are kept apart here.
Experiments:
PC-3 [1] = assay: Cell cycle kinetics by flow cytometry (PI), PC-3; assay type: cell-based, human
Procedure: The cell cycle kinetics of prostate cancer cells left untreated or incubated with UNBS5162 were determined by flow cytometry analysis of propidium iodide (PI) nuclear staining, using previously detailed methodology. Each sample was evaluated in triplicate. Flow cytometry was undertaken using an Epics XL.MCL flow cytometer and the FACScan/CellQuest software system (Becton Dickinson, Miami, Fla.).

U-373 MG = assay: Cell migration (phase-contrast microscopy); assay type: cell-based; details: Homo sapiens, U373 MG, 22 h, read-out: Maximum effects (cell migration); for Emax at 0.1 µM: at 10^−7 M
Procedure: Cells of different cancer lines, i.e. U-373 MG (Glioma cancer) and A549 (Lung cancer) were seeded on culture flask 48 hours before the migration experiment. On the test day, cells were treated with or without the compound of example 2 in closed Falcon dishes containing a buffered medium at a controlled temperature (37.0±0.1° C.) for 12 or 22 hours, as noted in the right column of table 3. The compound of example 2 was used at three non-cytotoxic concentrations (10^−6 M, 10^−7M, 10^−8 M). Migration of the cells was observed by means of a CCD-camera mounted on a phase-contrast microscope. Statistical analysis of the migration, with the non-parametric Mann-Whitney test, was established for 25% and 50% of the most motile cells and for the entire cell population.

[2] = UNBS5162 mouse pharmacokinetics; assay type: in vivo
Procedure: Mouse in-life phase. Female B6D2F1 mouse (Charles River, L'Arbresle, France) were administered a single i.v. bolus injection of 20 mg/kg or a single oral dose of 80-mg/kg UNBS5162 as a solution (formulated in 0.5% lactic acid). Dosing volume was 10 ml/kg body weight. The i.v. injection was performed through the tail vein, and the oral dose was given by gavage. Blood sampling for pharmacokinetic analysis was performed by cardiac puncture after Nembutal intraperitoneal injection. The blood was collected over Li-heparin at 0.05, 0.08, 0.17, 0.25, 0.33, 0.5, 0.75, 1, 2, 4, 7, 16, and 24 hours after dose. Five animals were used per time point. Blood was kept on ice for a maximum of 2 hours before isolating plasma by centrifugation, and the resulting plasma was stored at approximately −70° C. until analysis. The samples were subsequently analyzed for UNBS5162 by liquid chromatography-mass spectrometry.
Plasma concentrations of UNBS5162 were determined using liquid chromatography-mass spectrometry. […] Briefly, solid phase extraction was performed using SPE Oasis HLB columns of 1 ml (Waters). UNBS5162 and the internal standard UNBS5181 were eluted using methanol, evaporated to dryness and reconstituted in starting solvent, a mixture (90:10 v/v) of 0.05% aqueous formic acid (mobile phase A) and 0.05% formic acid in acetonitrile (mobile phase B). Liquid chromatographic separation was effected using an Atlantis T3 column (50×2.1 mm; 3 μm), with an isocratic method with a 90:10 v/v ratio of mobile phases A/B at a flow rate of 250 μl/min for 12.5 minutes, followed by 2 minutes of 100% mobile phase B and then 4.5 minutes reconditioning with the starting solvent at a flow rate of 250 μl/min. Compound detection and quantification were performed by positive ion electrospray ionization on a QToF Ultima mass spectrometer (Micromass, Manchester, UK).

Hs683 = assay: MTT colorimetric assay, Hs683 cells; assay type: cell-based; details: Homo sapiens, Hs 683, 72 h, 3 days of culturing, mean of six determinations, read-out: IC50 (μM) In Vitro Growth Inhibition
Procedure: (§1) The overall growth of human cancer cell lines was determined by means of the calorimetric MTT (3-[4,5-dimethylthiazol-2-yl]-diphenyl tetrazolium bromide; Sigma) assay, as detailed previously.

LoVo = assay: MTT colorimetric assay, LoVo cells; assay type: cell-based; details: Homo sapiens, 72 h, 3 days of culturing, mean of six determinations, read-out: IC50 (μM) In Vitro Growth Inhibition
Procedure: as §1

CFC-GEMM = assay: HALO hematotoxicity assay, mouse CFC-GEMM; assay type: cell-based; details: 5 days culture, iATP
Procedure: Investigation of the hematotoxic potential of UNBS5162 was undertaken by HemoGenix (Colorado Springs, Colo.). The effects of UNBS5162 on stem and progenitor cell populations from murine and human bone marrow were assessed using HALO (Hematopoietic/Hematotoxicity Assay through Luminescence Output) technology. Stem and hematopoietic progenitor cell populations were isolated from mouse and human bone marrow samples, plated at a concentration of 1.0×10^4 cells/well and cultured for 5 and 7 days, respectively, in the presence of growth factors and increasing concentrations of UNBS5162 ranging from 0.5 nM to 50 μM. The proliferative or growth potential of cell populations was determined from intracellular ATP (iATP) concentrations and a luciferin/luciferase bioluminescence signal detection system. All samples were assayed in eight replicates. The results are presented as estimated inhibitory concentration (IC) values.

PC-3 [3] = assay: Senescence-associated β-galactosidase staining, PC-3; assay type: cell-based, human; details: 10 μM, 72 hours
Procedure: After the indicated treatments, cells were washed in PBS, fixed for 3 to 5 minutes (at room temperature) in 2% formaldehyde/0.2% glutaraldehyde, washed and incubated at 37° C. (in the absence of CO2) with fresh senescence-associated β-Gal (SA-β-Gal) staining solution: 1 mg/ml of 5-bromo-4-chloro-3-indolyl […] (X-Gal; Sigma). Staining was evident within 2 to 4 hours and maximal after 12 to 16 hours. To detect lysosomal β-Gal, the citric acid/sodium phosphate used was pH 4.0. As described in the study of Dimri et al. [Proc Natl Acad Sci USA. 1995; 92:9363-9367.], after fixing and staining with X-Gal, the number of cells positive for the SA-β-Gal activity (intense blue staining) was then counted independently by two different individuals (on 400 cells/plate). Representative photographs (original magnifications, ×20) of stained cells from different experimental treatments were taken. As a positive control for SA-β-Gal expression, Adriamycin-treated cells were used.
Human PC-3 and DU-145 prostate cancer cells cultured in 0 or 10 μM UNBS5162 or 20 nM Adriamycin for 72 hours were evaluated by SA-β-Gal staining. The data clearly indicate that 10 μM [but not 1 μM or 5×1 μM] […] TMZ, as an inducer of autophagy but not of senescence, was used as a negative control.

E2F1 = E2F1 expression (Western blot), DU-145; assay type: cell-based, human; details: 10 μM
[4] = B6D2F1, mouse, plasma, iv, female mice, i.v. 20 mg/kg single
[5] = B6D2F1, mouse, plasma, po, female mice, p.o. 80 mg/kg single

CN(C)CCN1C(=O)c2cccc3cc(NC(N)=O)cc(c23)C1=O [UNBS5162, N-{2-[2-(dimethylamino)ethyl]-1,3-dioxo-2,3-dihydro-1H-benzo[de]isoquinolin-5-yl}urea]
cell cycle kinetics (PC-3 [1]; 1 μM): did not significantly (P>0.05) modify | cell cycle kinetics, G2 block (PC-3 [1]; 10 μM for 72 hours): markedly blocked PC-3 cells in their G2 cell cycle phase | cell cycle kinetics (PC-3 [1]; chronic 1 μM for 5 days (5×1) or 3 weeks (3w1)): did not notably modify PC-3 cell cycle kinetics | Emax at 0.1 µM (U-373 MG; 22 hours on the 25% of the most motile cells): -29% | Emax at 0.1 µM (U-373 MG; 22 hours on the 50% of the most motile cells): -24% | Emax (U-373 MG; 22 hours on the 100% of cells, at the 10^−7 M): -20% | AUC(0-inf) [2, 4]: 5770 ng·h/mL | Cmax [2, 4]: 12000 ng/mL | Vd [2, 4]: 18.9 L/kg | half-life [2, 4]: 3.8 h | bioavailability ([2]; B6D2F1, mouse, plasma, oral, female mice, p.o. 80 mg/kg versus i.v. 20 mg/kg, read-out: F (absolute bioavailability)): 3.84% | AUC(0-inf) [2, 5]: 886 ng·h/mL | Cmax [2, 5]: 510 ng/mL | Tmax [2, 5]: 0.3 h | Cl ([2]; female mice, i.v. 20 mg/kg single): 3.47 L/h per kilogram | time for which 1-μM plasma levels are sustained ([2]; mice, post-i.v. 20 mg/kg): ≤ 2 h | time for which plasma levels of 10 μM are maintained ([2]; mice, post-i.v. 20 mg/kg): approximately 30 minutes | IC50 (Hs683): 8.5 µM | IC50 (LoVo): 8.9 µM | IC50 (CFC-GEMM; 120 h): 6.22 µM | IC90 (CFC-GEMM; 120 h): 8.96 µM | IC75 (CFC-GEMM): 7.48 µM | SA-β-Gal expression (PC-3 [3]): Limited SA-β-Gal expression | E2F1 expression (E2F1): a decrease but not the complete disappearance of Rb protein and E2F1 expression
